Test results: patent US20260223846A1, “PEPTIDE IN COMBINATION WITH FUNGICIDE COMPOSITIONS FOR FUNGAL CONTROL AND RELATED METHODS” (priority 2023, published 2026)
Read-outs that look alike come from different tables or passages of the source. Where no end group is shown, it is not given here.

Tests used:
Fusarium proliferatum = assay: Co-incubation (oCelloScope) assay, F. proliferatum conidial germination; type: cell-based
Botrytis (Strain B05.10) = assay: Botrytis inhibition assay (resazurin assay); type: cell-based; details: for inhibition at 1 µM: tested alone at 1 μM
Botrytis cinerea b05.10 = type: cell-based
[1] = system: Pseudoperonospora cubensis; assay: Pseudoperonospora cubensis (cucurbit downy mildew) leaf disk assay; type: in vivo; details: for Summary of CGI factor spectrum of activity: Downy Mildew
[2] = system: Fusarium graminearum (Gibberella zeae); type: cell-based; details: for Inhibition: 50 micromolar; for Summary of CGI factor spectrum of activity: Fusarium graminearum
[3] = system: Fusarium oxysporum f. sp. lycopersici (Saccardo) Snyder et Hansen CBS 167.30; assay: Resazurin plate co-incubation assay, F. oxysporum; type: cell-based; details: for Inhibition: 50 micromolar; for Summary of CGI factor spectrum of activity: Fusarium oxysporum
[4] = tested alone at 0.2 ug/ml, 24 hours at 23° C.
[5] = tested alone at 2 ug/ml, 24 hours at 23° C.
[6] = read-out: Percent Inhibition EXP23002594
[7] = read-out: Percent Inhibition EXP23002662
[8] = tested alone at 5 uM, 24 hours at 23° C.
[9] = tested alone at 0.02 ug/ml, 24 hours at 23° C.
[10] = tested alone at 0.5 uM, 24 hours at 23° C.
[11] = tested alone at 1 uM, 24 hours at 23° C.
[12] = 10 micromolar, 24 hours at 20° C.
[13] = 100 micromolar, 24 hours at 20° C.
[14] = Botrytis cinerea, at least one concentration tested
[15] = tested alone at 0.25 uM, 24 hours at 23° C.

Molecule: O=C(Nc1ccccc1-c1ccc(Cl)cc1)c1cccnc1Cl [Boscalid]
- Inhibition of conidial germination (Fusarium proliferatum; [4]): neither boscalid nor trifloxystrobin showed any inhibition and No
- Inhibition of conidial germination (Fusarium proliferatum; [5]): neither boscalid nor trifloxystrobin showed any inhibition and no inhibition and No

Molecule: CC[C@H](C)C[C@H](C)CCCCCCCCC(=O)N[C@H]1C[C@@H](O)[C@@H](NCCN)NC(=O)[C@@H]2[C@@H](O)CCN2C(=O)[C@H]([C@H](O)CCN)NC(=O)[C@H]([C@H](O)[C@@H](O)c2ccc(O)cc2)NC(=O)[C@@H]2C[C@@H](O)CN2C(=O)[C@H]([C@@H](C)O)NC1=O [Caspofungin]
- inhibition at 1 µM (Botrytis (Strain B05.10); read-out: Percent Inhibition EXP23002534): 1.08%
- inhibition at 1 µM (Botrytis (Strain B05.10); [6]): 98.7%
- inhibition at 1 µM (Botrytis (Strain B05.10); [7]): 3.1%

Molecule: Cc1cc(C2CC2)nc(Nc2ccccc2)n1 [Cyprodinil]
- inhibition at 50 µM (Botrytis (Strain B05.10); [6]): 73.6%
- inhibition at 50 µM (Botrytis (Strain B05.10); [7]): 53.7%
- inhibition at 100 µM (Botrytis (Strain B05.10); [7]): 74.8%

Molecule: N#Cc1c[nH]cc1-c1cccc(Cl)c1Cl [Fenpiclonil]
- Inhibition of conidial germination (Fusarium proliferatum; [8]): did not inhibit conidial germination and No
- Inhibition of conidial germination (Fusarium proliferatum; tested alone at 10 uM, 24 hours at 23° C.): No
- Inhibition of conidial germination (Fusarium proliferatum; tested alone at 50 uM, 24 hours at 23° C.): Yes

Molecule: N#Cc1c[nH]cc1-c1cccc2c1OC(F)(F)O2 [Fludioxonil]
- Inhibition of conidial germination (Fusarium proliferatum; [9]): did not show any inhibition and No
- Inhibition of conidial germination (Fusarium proliferatum; [4]): No
- Inhibition of conidial germination (Fusarium proliferatum; [5]): Yes

Molecule: CC1(C)CCC(Cc2ccc(Cl)cc2)C1(O)Cn1cncn1 (stereo not shown) [Metconazole]
- Inhibition of conidial germination (Fusarium proliferatum; [9]): did not show any inhibition and No
- Inhibition of conidial germination (Fusarium proliferatum; [4]): No
- Inhibition of conidial germination (Fusarium proliferatum; [5]): inhibited fungal growth and Yes

Molecule: C[C@@H]1C/C=C/C=C/C=C/C=C/[C@H](O[C@@H]2O[C@H](C)[C@@H](O)[C@H](N)[C@@H]2O)C[C@@H]2O[C@](O)(C[C@@H](O)C[C@H]3O[C@@H]3/C=C/C(=O)O1)C[C@H](O)[C@H]2C(=O)O [Natamycin]
- Inhibition of conidial germination (Fusarium proliferatum; [8]): did not show any inhibition
- Inhibition of conidial germination (Fusarium proliferatum; tested alone at 5 ug/ml, 24 hours at 23° C.): No
- Inhibition of conidial germination (Fusarium proliferatum; tested alone at 10 ug/ml, 24 hours at 23° C.): No
- Inhibition of conidial germination (Fusarium proliferatum; tested alone at 100 ug/ml, 24 hours at 23° C.): inhibited fungal growth and Yes
- inhibition at 100 µM (Botrytis (Strain B05.10); Table 20, tested alone at 100 μM (positive control), read-out: Percent Inhibition (Median)): 101%
- inhibition at 100 µM (Botrytis (Strain B05.10); tested alone at 100 μM (positive control 1), read-out: Percent Inhibition EXP23002534): 100%
- inhibition at 100 µM (Botrytis (Strain B05.10); tested alone at 100 μM (positive control 1), read-out: Percent Inhibition EXP23002594): 101%
- inhibition at 100 µM (Botrytis (Strain B05.10); tested alone at 100 μM, read-out: Percent Inhibition EXP23002662): 101%

Molecule: CON=C(C(=O)OC)c1ccccc1CON=C(C)c1cccc(C(F)(F)F)c1 [Trifloxystrobin]
- Inhibition of conidial germination (Fusarium proliferatum; [4]): neither boscalid nor trifloxystrobin showed any inhibition and No
- Inhibition of conidial germination (Fusarium proliferatum; [5]): neither boscalid nor trifloxystrobin showed any inhibition and No

Molecule: Drosomycin (DCLSGRYKGPCAVWDNETCRRVCKEEGRSSGHCSPSLKCWCEGC; disulfide (positions not given here); not fully specified; ends not checked; also: four intramolecular disulfide bridges, pairing not given here; UniProt P41964 27-70, looked up) [44-residue antifungal peptide with four intramolecular disulfide bridges, heterologously expressed in E. coli]
- Inhibition of conidial germination (Fusarium proliferatum; [10]): did not show any inhibition and No
- Inhibition of conidial germination (Fusarium proliferatum; [11]): did not show any inhibition and No
- Inhibition of conidial germination (Fusarium proliferatum; tested alone at 8 uM, 24 hours at 23° C.): Yes

Molecule: RRRRRRRR [Pep462, Octaarginine (R8) cell-penetrating peptide (non-CGI peptide CONTROL)]
- Inhibition (Botrytis cinerea b05.10; [12]): inhibited and Yes
- Inhibition (Botrytis cinerea b05.10; [13]): inhibited and Yes
- Summary of CGI factor spectrum of activity (Botrytis cinerea b05.10; [14]): completely inhibited conidial germination and Yes
- Inhibition (reduced disease severity of leaf discs) ([1]; 20 micromolar): did not and No
- Summary of CGI factor spectrum of activity [1]: No
- Inhibition [2]: Yes
- Summary of CGI factor spectrum of activity [2]: Yes
- Inhibition [3]: Yes
- Summary of CGI factor spectrum of activity [3]: Yes
- Inhibition of conidial germination (Fusarium proliferatum; tested alone at 0.125 uM, 24 hours at 23° C.): No
- Inhibition of conidial germination (Fusarium proliferatum; [15]): No
- Inhibition of conidial germination (Fusarium proliferatum; [10]): No
- Inhibition of conidial germination (Fusarium proliferatum; [11]): effective and Yes

Molecule: WCGRPGQPC (REGION 1..9: note = Botrytis spp.) [Pep106, B. cinerea Alpha-pheromone]
- Inhibition (Botrytis cinerea b05.10; [12]): No
- Inhibition (Botrytis cinerea b05.10; [13]): No
- Summary of CGI factor spectrum of activity (Botrytis cinerea b05.10; [14]): No

Molecule: WCTWKGQPCW [Pep105]
- Inhibition (Botrytis cinerea b05.10): No
- Summary of CGI factor spectrum of activity (Botrytis cinerea b05.10): No
- Inhibition of conidial germination (Fusarium proliferatum): No and Yes

Molecule: WHWLQLKPGQPMY (listed as Saccharomyces cerevisiae) [Pep107, S. cerevisiae Alpha-pheromone]
- Inhibition (Botrytis cinerea b05.10; [12]): No
- Inhibition (Botrytis cinerea b05.10; [13]): moderate inhibition and Some
- Summary of CGI factor spectrum of activity (Botrytis cinerea b05.10; [14]): Yes
- Inhibition (reduced disease severity of leaf discs) ([1]; 200 micromolar): reduced the disease severity and Yes
- Summary of CGI factor spectrum of activity [1]: Yes
- Inhibition [2]: did not show any inhibition and No
- Summary of CGI factor spectrum of activity [2]: No
- Inhibition [3]: Yes
- Summary of CGI factor spectrum of activity [3]: Yes

Molecule: WHWLQLKPGQPMYGGGGWHWLQLKPGQPMY (listed as Saccharomyces cerevisiae) [Pep302, S. cerevisiae Alpha-pheromone homodimer with GGGG linker]
- Inhibition of conidial germination (Fusarium proliferatum; [15]): No
- Inhibition of conidial germination (Fusarium proliferatum; [10]): No
- Inhibition of conidial germination (Fusarium proliferatum; [11]): Yes

Molecule: WHWLQLKPGQPMYWHWLQLKPGQPMY (listed as Saccharomyces cerevisiae) [Pep301, S. cerevisiae Alpha-pheromone homodimer]
- Inhibition (Botrytis cinerea b05.10; [12]): No
- Inhibition (Botrytis cinerea b05.10; [13]): active and Yes
- Summary of CGI factor spectrum of activity (Botrytis cinerea b05.10; [14]): completely inhibited conidial germination and Yes
- Inhibition (reduced disease severity of leaf discs) ([1]; 20 micromolar): reduced the disease severity and Yes
- Summary of CGI factor spectrum of activity [1]: Yes
- Inhibition [2]: Yes
- Summary of CGI factor spectrum of activity [2]: Yes
- Inhibition [3]: Yes
- Summary of CGI factor spectrum of activity [3]: Yes
- Inhibition of conidial germination (Fusarium proliferatum; [15]): No
- Inhibition of conidial germination (Fusarium proliferatum; [10]): No
- Inhibition of conidial germination (Fusarium proliferatum; [11]): Yes
